In US5084468A, “DC-88A derivatives” (Kyowa Hakko Kogyo Co., Ltd., priority 1988, dated 1992):

Test system: dd strain male mice
Test: not given
Type: in vivo
Conditions: intraperitoneal, 14 days observation
Description: Using dd strain male mice weighing 20±1 g, a test compound was intraperitoneally administered. MLD (the minimum lethal dose) was determined by observing the mortality for 14 days after administration.

Row | SMILES | Acute Toxicity (MLD), minimum lethal dose [mg/kg]
1 | COC(=O)C1(C)Nc2c(O)cc3c(c2C1=O)C(CBr)CN3C(=O)c1cc2ccccc2[nH]1 (stereo not shown) [Compound 2] | 0.25
2 | COC(=O)C1(C)Nc2c(O)cc3c(c2C1=O)C(CBr)CN3C(=O)c1cc2cc(OC)ccc2[nH]1 (stereo not shown) [Compound 3] | 0.063
3 | COC(=O)C1(C)Nc2c(O)cc3c(c2C1=O)C(CBr)CN3C(=O)c1cc2ccccc2o1 (stereo not shown) [Compound 4] | 0.25
4 | COC(=O)C1(C)Nc2c(O)cc3c(c2C1=O)C(CBr)CN3C(=O)/C=C/c1ccccc1 (stereo not shown) [Compound 7] | 1.0
5 | COC(=O)C1(C)Nc2c(O)cc3c(c2C1=O)C(CBr)CN3C(=O)COc1ccccc1 (stereo not shown) [Compound 15] | 4.0
6 | COC(=O)C1(C)Nc2c(O)cc3c(c2C1=O)C(CBr)CN3C(=O)CNc1ccccc1 (stereo not shown) [Compound 19] | 2.5
7 | COC(=O)C1(C)Nc2c(O)cc3c(c2C1=O)C(CBr)CN3C(C)=O (stereo not shown) [Compound 22] | 13
8 | COC(=O)C1(C)Nc2c(O)cc3c(c2C1=O)C(CBr)CN3C(=O)c1cc2cc(OC)c(OC)cc2[nH]1 (stereo not shown) [Compound 24] | 0.25
9 | COC(=O)C1(C)Nc2c(O)cc3c(c2C1=O)C(CBr)CN3C(=O)c1cc2ccccc2s1 (stereo not shown) [Compound 26] | 2.2
10 | COC(=O)C1(C)Nc2c(O)cc3c(c2C1=O)C(CBr)CN3C(=O)/C=C/c1cccc(OC)c1 (stereo not shown) [Compound 28] | 0.16
11 | COC(=O)C1(C)Nc2c(O)cc3c(c2C1=O)C(CBr)CN3C(=O)/C=C/c1ccc(OC)c(OC)c1 (stereo not shown) [Compound 30] | 0.082
12 | COC(=O)C1(C)Nc2c(O)cc3c(c2C1=O)C(CBr)CN3C(=O)C1Cc2ccccc2N1 (stereo not shown) [Compound 31] | 20
13 | COC(=O)C1(C)NC2=C(C1=O)C13CC1CN(C(=O)c1cc4cc(NC(=O)OC(C)(C)C)ccc4[nH]1)C3=CC2=O (stereo not shown) [Compound 32] | 0.25
14 | COC(=O)C1(C)Nc2c(O)cc3c(c2C1=O)C(CBr)CN3C(=O)c1cc2cc(OC)ccc2o1 (stereo not shown) [Compound 34] | 0.063
15 | COC(=O)C1(C)Nc2c(O)cc3c(c2C1=O)C(CBr)CN3C(=O)/C=C/c1cccc(OC(C)=O)c1 (stereo not shown) [Compound 35] | 0.25
16 | COC(=O)C1(C)Nc2c(O)cc3c(c2C1=O)C(CBr)CN3C(=O)/C=C/c1ccc(NC(=O)OCc2ccccc2)cc1 (stereo not shown) [Compound 36] | 1.3
17 | COC(=O)C1(C)Nc2c(O)cc3c(c2C1=O)C(CBr)CN3C(=O)/C=C/c1ccc(OC)cc1 (stereo not shown) [Compound 38] | 0.063
18 | COC(=O)C1(C)Nc2c(O)cc3c(c2C1=O)C(CBr)CN3C(=O)CCc1ccc(OC)c(OC)c1 (stereo not shown) [Compound 39] | 1.3
19 | COC(=O)C1(C)Nc2c(O)cc3c(c2C1=O)C(CBr)CN3C(=O)/C=C/c1ccc(N(C)C)cc1 (stereo not shown) [Compound 40] | 0.31
20 | COC(=O)C1(C)Nc2c(O)cc3c(c2C1=O)C(CBr)CN3C(=O)/C=C/c1ccc([N+](=O)[O-])cc1 (stereo not shown) [Compound 41] | 1.3
21 | COC(=O)C1(C)Nc2c(O)cc3c(c2C1=O)C(CBr)CN3C(=O)/C=C/c1ccc(C=O)cc1 (stereo not shown) [Compound 42] | 2.5
22 | COC(=O)C1(C)Nc2c(O)cc3c(c2C1=O)C(CBr)CN3C(=O)c1cc2cc(NC(=O)c3cc4ccccc4[nH]3)ccc2[nH]1 (stereo not shown) [Compound 45] | 0.63
23 | COC(=O)C1(C)Nc2c(O)cc3c(c2C1=O)C(CBr)CN3C(=O)c1cc2cc(NC(=O)c3cc4ccccc4o3)ccc2[nH]1 (stereo not shown) [Compound 46] | 0.63
24 | COC(=O)C1(C)Nc2c(O)cc3c(c2C1=O)C(CBr)CN3C(=O)c1cc2cc(OC)c(OCc3ccccc3)c(OC)c2[nH]1 (stereo not shown) [Compound 55] | 0.25

Test system: various bacteria
Test: not given
Conditions: cited from earlier work

Row | SMILES | antibacterial activity
25 | COC(=O)C1(C)NC2=C(C1=O)C13CC1CN(C(=O)c1cc4cc(OC)c(OC)c(OC)c4[nH]1)C3=CC2=O (stereo not shown) [DC-88A] | antibacterial activity against various bacteria

Test system: HeLa S3 cells
Test: Growth inhibition of HeLa S3 cells (neutral red, 72 hours)
Type: cell-based
Conditions: Homo sapiens, HeLa S3, 72 h, read-out: IC50 (drug concentration which inhibited growth of HeLa S3 cells by 50%)
Description: Test on Growth Inhibition of HeLa S3 cells
HeLa S3 cells diluted to 3 x 10^4 cells/ml with MEM medium containing 10% calf fetal serum and 2 mM glutamine were separately distributed by 0.1 ml each in each well of a 96 well microtiter plate.
After culturing at 37° C. overnight in a CO2 -incubator, 0.05 ml each of a test sample appropriately diluted with MEM medium was added to each well.
After culturing the cells for 72 hours in the CO2 -incubator, the culture supernatant was removed. After washing once with phosphate buffered physiological saline (PBS), 0.1 ml each of MEM medium containing 0.02% neutral red was added to each well and then cultured at 37° C. for an hour in the CO2 -incubator to stain the cells. After removing the culture supernatant, the cells were washed once with physiological saline, and the dye was extracted with 0.001N HCl/30% ethanol. Absorbance at […] of the extract was measured with a microplate reader. By comparing absorbance of extract of intact cells with that of the cells treated with a test compound in known concentrations, IC50, i.e. a drug concentration which inhibited growth of the cells by 50% was determined.

Row | SMILES | IC50 [nM]
26 | COC(=O)C1(C)Nc2c(O)cc3c(c2C1=O)C(CBr)CN3C(=O)c1cc2ccccc2[nH]1 (stereo not shown) [Compound 2] | 0.054
27 | COC(=O)C1(C)Nc2c(O)cc3c(c2C1=O)C(CBr)CN3C(=O)c1cc2ccccc2o1 (stereo not shown) [Compound 4] | 0.1
28 | COC(=O)C1(C)Nc2c(O)cc3c(c2C1=O)C(CBr)CN3C(=O)/C=C/c1ccccc1 (stereo not shown) [Compound 7] | 5.7
29 | COC(=O)C1(C)Nc2c(O)cc3c(c2C1=O)C(CBr)CN3C(=O)COc1ccccc1 (stereo not shown) [Compound 15] | 3.1
30 | COC(=O)C1(C)Nc2c(O)cc3c(c2C1=O)C(CBr)CN3C(=O)c1cc2cc(OC)c(OC)cc2[nH]1 (stereo not shown) [Compound 24] | 0.024
31 | COC(=O)C1(C)Nc2c(O)cc3c(c2C1=O)C(CBr)CN3C(=O)/C=C/c1cccc(OC)c1 (stereo not shown) [Compound 28] | 2.5
32 | COC(=O)C1(C)NC2=C(C1=O)C13CC1CN(C(=O)/C=C/c1ccc(OC)c(OC)c1)C3=CC2=O (stereo not shown) [Compound 29] | < 0.024
33 | COC(=O)C1(C)Nc2c(O)cc3c(c2C1=O)C(CBr)CN3C(=O)/C=C/c1ccc(OC)c(OC)c1 (stereo not shown) [Compound 30] | 0.034
34 | COC(=O)C1(C)Nc2c(O)cc3c(c2C1=O)C(CBr)CN3C(=O)c1cc2cc(OC)ccc2o1 (stereo not shown) [Compound 34] | 0.05
35 | COC(=O)C1(C)Nc2c(O)cc3c(c2C1=O)C(CBr)CN3C(=O)/C=C/c1cccc(OC(C)=O)c1 (stereo not shown) [Compound 35] | 0.94
36 | COC(=O)C1(C)Nc2c(O)cc3c(c2C1=O)C(CBr)CN3C(=O)/C=C/c1ccc(OC)cc1 (stereo not shown) [Compound 38] | 0.035
37 | COC(=O)C1(C)Nc2c(O)cc3c(c2C1=O)C(CBr)CN3C(=O)/C=C/c1ccc(N(C)C)cc1 (stereo not shown) [Compound 40] | 0.085
38 | COC(=O)C1(C)Nc2c(O)cc3c(c2C1=O)C(CBr)CN3C(=O)c1cc2cc(NC(=O)c3cc4ccccc4[nH]3)ccc2[nH]1 (stereo not shown) [Compound 45] | 1.1
39 | COC(=O)C1(C)Nc2c(O)cc3c(c2C1=O)C(CBr)CN3C(=O)c1cc2cc(NC(=O)c3cc4ccccc4o3)ccc2[nH]1 (stereo not shown) [Compound 46] | 0.4
40 | COC(=O)C1(C)Nc2c(O)cc3c(c2C1=O)C(CBr)CN3C(=O)c1cc2cc(OC)c(OCc3ccccc3)c(OC)c2[nH]1 (stereo not shown) [Compound 55] | 0.52

Same assay, conditions: Homo sapiens; HeLa S3 cells, 72 hours, neutral red staining; read-out: IC50 (drug concentration which inhibited growth of HeLa S3 cells by 50%)

Row | SMILES | IC50 [nM]
41 | COC(=O)C1(C)NC2=C(C1=O)C13CC1CN(C(=O)c1cc4ccccc4[nH]1)C3=CC2=O (stereo not shown) [Compound 1] | 1.1
42 | COC(=O)C1(C)Nc2c(O)cc3c(c2C1=O)C(CI)CN3C(=O)c1cc2cc(OC)c(OC)c(OC)c2[nH]1 (stereo not shown) [Compound 5] | 0.011
43 | COC(=O)C1(C)NC2=C(C1=O)C13CC1CN(C(=O)/C=C/c1ccccc1)C3=CC2=O (stereo not shown) [Compound 6] | 2.3
44 | COC(=O)C1(C)NC2=C(C1=O)C13CC1CN(C(=O)Nc1ccccc1)C3=CC2=O (stereo not shown) [Compound 8] | 3.2
45 | COC(=O)C1(C)Nc2c(O)cc3c(c2C1=O)C(CBr)CN3C(=O)Nc1ccccc1 (stereo not shown) [Compound 9] | 2.6
46 | COC(=O)C1(C)NC2=C(C1=O)C13CC1CN(C(=O)COc1ccccc1)C3=CC2=O (stereo not shown) [Compound 14] | 6.7
47 | COC(=O)C1(C)NC2=C(C1=O)C13CC1CNC3=CC2=O (stereo not shown) [Compound 18] | 3900
48 | COC(=O)C1(C)NC2=C(C1=O)C13CC1CN(C(=O)c1cc4cc(OC)c(OC)cc4[nH]1)C3=CC2=O (stereo not shown) [Compound 23] | < 0.024
49 | COC(=O)C1(C)NC2=C(C1=O)C13CC1CN(C(=O)c1cc4ccccc4s1)C3=CC2=O (stereo not shown) [Compound 25] | 7.6
50 | COC(=O)C1(C)NC2=C(C1=O)C13CC1CN(C(=O)/C=C/c1cccc(OC)c1)C3=CC2=O (stereo not shown) [Compound 27] | 0.6
51 | COC(=O)C1(C)Nc2c(O)cc3c(c2C1=O)C(CBr)CN3C(=O)C1Cc2ccccc2N1 (stereo not shown) [Compound 31] | 81
52 | COC(=O)C1(C)Nc2c(O)cc3c(c2C1=O)C(CBr)CN3C(=O)c1cc2cc(N)ccc2[nH]1 (stereo not shown) [Compound 33] | 0.88
53 | COC(=O)C1(C)Nc2c(O)cc3c(c2C1=O)C(CBr)CN3C(=O)/C=C/c1ccc(NC(C)=O)cc1 (stereo not shown) [Compound 37] | 0.74
54 | COC(=O)C1(C)Nc2c(O)cc3c(c2C1=O)C(CBr)CN3C(=O)/C=C/c1ccc(N)cc1 (stereo not shown) [Compound 48] | 1.2

Test system: lymphocytic leukemia P388
Test: not given
Conditions: lymphocytic leukemia P388, etc.; cited from earlier work

Row | SMILES | antitumor activity against lymphocytic leukemia P388
55 | COC(=O)C1(C)NC2=C(C1=O)C13CC1CN(C(=O)c1cc4cc(OC)c(OC)c(OC)c4[nH]1)C3=CC2=O (stereo not shown) [DC-88A] | antitumor activity against lymphocytic leukemia P388
